Assay [1] deals with T1, human glucocorticoid receptor-α [GRX] isoform (Homo sapiens, UniProt P04150).
T1 construct: host or cells: insect SF21 cells (baculovirus)
T1 sequence (P04150 1-777): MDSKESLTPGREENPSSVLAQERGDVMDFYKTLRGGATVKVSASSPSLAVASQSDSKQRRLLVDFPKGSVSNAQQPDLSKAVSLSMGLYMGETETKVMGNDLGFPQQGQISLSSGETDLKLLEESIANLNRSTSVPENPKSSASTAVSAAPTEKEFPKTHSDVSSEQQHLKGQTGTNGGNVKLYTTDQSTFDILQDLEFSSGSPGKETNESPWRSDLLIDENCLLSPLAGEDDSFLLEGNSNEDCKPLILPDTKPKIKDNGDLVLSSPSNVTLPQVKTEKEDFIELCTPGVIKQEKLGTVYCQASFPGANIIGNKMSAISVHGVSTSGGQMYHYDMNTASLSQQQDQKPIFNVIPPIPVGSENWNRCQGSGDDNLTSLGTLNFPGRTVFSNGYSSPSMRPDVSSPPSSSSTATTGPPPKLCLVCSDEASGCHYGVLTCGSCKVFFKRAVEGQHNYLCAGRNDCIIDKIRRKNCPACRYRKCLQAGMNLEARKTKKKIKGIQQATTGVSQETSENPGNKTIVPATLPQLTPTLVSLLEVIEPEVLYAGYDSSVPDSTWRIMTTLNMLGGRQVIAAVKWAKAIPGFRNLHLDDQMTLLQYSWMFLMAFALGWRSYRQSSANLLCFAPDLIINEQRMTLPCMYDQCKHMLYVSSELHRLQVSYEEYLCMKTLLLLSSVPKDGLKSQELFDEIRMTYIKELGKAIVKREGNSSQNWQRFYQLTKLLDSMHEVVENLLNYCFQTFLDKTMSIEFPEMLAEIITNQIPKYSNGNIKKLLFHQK
In words: Radioligand binding with human glucocorticoid receptor cytosol ([3H]-dexamethasone competition).

The target in assay [2] is T2, human progesterone receptor-A [PRA] isoform (Homo sapiens, UniProt P06401).
T2 construct: host or cells: insect SF21 cells (baculovirus)
T2 sequence (P06401 1-769 isoform P06401-2): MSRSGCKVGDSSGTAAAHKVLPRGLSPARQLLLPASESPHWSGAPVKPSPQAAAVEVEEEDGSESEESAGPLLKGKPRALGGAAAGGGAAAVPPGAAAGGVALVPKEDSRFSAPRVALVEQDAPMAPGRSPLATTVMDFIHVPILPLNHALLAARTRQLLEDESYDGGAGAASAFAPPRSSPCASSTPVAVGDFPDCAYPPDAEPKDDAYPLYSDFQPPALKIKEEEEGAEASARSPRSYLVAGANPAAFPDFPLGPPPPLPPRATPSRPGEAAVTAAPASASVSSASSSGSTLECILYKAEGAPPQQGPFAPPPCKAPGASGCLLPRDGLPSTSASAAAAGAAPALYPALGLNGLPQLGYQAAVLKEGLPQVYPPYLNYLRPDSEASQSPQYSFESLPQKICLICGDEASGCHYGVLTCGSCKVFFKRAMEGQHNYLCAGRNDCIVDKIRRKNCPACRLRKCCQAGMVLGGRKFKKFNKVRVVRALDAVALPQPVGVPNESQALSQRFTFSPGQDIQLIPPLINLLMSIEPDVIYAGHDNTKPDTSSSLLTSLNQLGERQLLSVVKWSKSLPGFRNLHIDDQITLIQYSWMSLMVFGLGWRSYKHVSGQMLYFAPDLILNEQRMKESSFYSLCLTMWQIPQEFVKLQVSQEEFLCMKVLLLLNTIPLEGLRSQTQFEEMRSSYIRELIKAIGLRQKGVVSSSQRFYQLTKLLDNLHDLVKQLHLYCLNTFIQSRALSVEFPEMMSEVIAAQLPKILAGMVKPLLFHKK
In words: Radioligand binding with human progesterone receptor cytosol ([3H]-progesterone competition).

The mark [3] stands for this setting: GRX cytosol expressed in insect SF21 cells, [3H]-Dex ~0.9 nM, 4° C. overnight, Ki by Cheng-Prusoff, KL ~[…], read-out: Ki (nM) GR.
Where [4] appears, read: PRA cytosol expressed in insect SF21 cells, [3H]Prog ~0.8 nM, 4° C. overnight, Ki by Cheng-Prusoff, KL ~4.5 nM, read-out: Ki (nM) PR.

Like-named read-outs stand apart in the source and are kept apart here. Where only a bound is given, the exact number is not on record here.

By Ki is commonly meant a measure of affinity in units of concentration, obtained from inhibition or displacement.

For the molecule `CCOC(=O)NCC1Oc2cccc(OC)c2-c2ccc3c(c21)C(C)=CC(C)(C)N3` (stereo not drawn) [Example 207], the Ki was 22 nM in assay [1] (setting [3]) and at least 10000 nM in assay [2] (setting [4]).

For the molecule `CC1=CC(C)(C)Nc2ccc3c(c21)C(c1ccccc1)Oc1cccc(O)c1-3` (stereo not drawn) [Example 7, 2,5-Dihydro-2,2,4-trimethyl-5-phenyl-1H-[1]benzopyrano[3,4-f]quinolin-10-ol], the Ki in assay [1] (setting [3]) amounted to 4.3 nM; in assay [2] (setting [4]) it was 5680 nM.

Turning to `COc1cccc2c1-c1ccc3c(c1C(CCCNC(=O)NN)O2)C(C)=CC(C)(C)N3` (stereo not drawn) [Example 178, 2,5-Dihydro-10-methoxy-5-(1-(hydrazinocarbonylamino)-3-propyl)-2,2,4-trimethyl-1H-[1]benzopyrano[3,4-f]quinoline], the inhibitory constant (Ki) was 468 nM in assay [1] (setting [3]) and at least 10000 nM in assay [2] (setting [4]).

On to “(+/−)2,5-Dihydro-9-hydroxy-10-methoxy-2,2,4-trimethyl-5(S)-(3(S)-1-hydroxymethylcyclopenten-3-yl)-1H-[1]benzopyrano[3,4-f]quinoline [Example 270]”, for which the Ki in assay [1] (read-out: Ki (nM) GR) stood at 0.66 nM; in assay [2] (read-out: Ki (nM) PR), 4760 nM.

With `COc1cccc2c1-c1ccc3c(c1C(/C=C/COC(=O)N(C)C)O2)C(C)=CC(C)(C)N3` (stereo not drawn) [Example 182, (E) 2,5-Dihydro-10-methoxy-5-(3-(N,N-dimethylaminocarbonyloxy)-1-propenyl)-2,2,4-trimethyl-1H-[1]benzopyrano[3,4-f]quinoline], the values for the Ki in assay [1] (setting [3]) and in assay [2] (setting [4]) were 23 nM and at least 10000 nM, respectively.

On to `COc1cccc2c1-c1ccc3c(c1C(c1cccc(OCC4CC4)c1)O2)C(C)=CC(C)(C)N3` (stereo not drawn) [Example 88, 5-[3-(Cyclopropylmethoxy)phenyl]-2,5-dihydro-10-methoxy-2,2,4-trimethyl-1H-[1]benzopyrano[3,4-f]quinoline], for which the Ki in assay [1] (setting [3]) is 6 nM; in assay [2] (setting [4]) it was 15300 nM.

For `C=CCC1Oc2ccc(OC(C)=O)c(OC)c2-c2ccc3c(c21)C(C)=CC(C)(C)N3` (stereo not drawn) [Example 295, 2,5-Dihydro-9-acetoxy-10-methoxy-2,2,4-trimethyl-5-(2-propenyl)-1H-[1]benzopyrano[3,4-f]quinoline], the inhibition constant (Ki) is 0.67 nM in assay [1] (setting [3]) and 59.3 nM in assay [2] (setting [4]).

Turning to `CCOc1cccc2c1-c1ccc3c(c1C(c1ccccc1)O2)C(C)=CC(C)(C)N3` (stereo not drawn) [Example 9, 10-Ethoxy-2,5-dihydro-2,2,4-trimethyl-5-phenyl-1H-[1]benzopyrano[3,4-f]quinoline], the Ki in assay [1] (setting [3]) was 60.5 nM; in assay [2] (setting [4]), at least 10000 nM.

In the case of `CC1=CC(C)(C)Nc2ccc3c(c21)C(c1ccccc1)Oc1cccc(Cl)c1-3` (racemic) [Example 310, (+/−)2,5-Dihydro-10-chloro-2,2,4-trimethyl-5-phenyl-1H-[1]benzopyrano[3,4-f]quinoline], the Ki was found to be 4.4 nM in assay [1] (setting [3]) and 382 nM in assay [2] (setting [4]).

`COc1c(O)ccc2c1-c1ccc3c(c1CO2)C(C)=CC(C)(C)N3` [Example 279, 2,5,5-Trihydro-9-hydroxy-10-methoxy-2,2,4-trimethyl-1H-[1]benzopyrano[3,4-f]quinoline]: the Ki turned out to be 12.4 nM in assay [1] (setting [3]) and 1900 nM in assay [2] (setting [4]).

For the molecule `COc1cccc2c1-c1ccc3c(c1C(C1C=C(COC(C)=O)CCC1)O2)C(C)=CC(C)(C)N3` [Example 163, rel (5R, 3′R) 2,5-Dihydro-10-methoxy-5-(1-acetoxymethyl-3-cyclohexenyl)-2,2,4-trimethyl-1H-[1]benzopyrano[3,4-f]quinoline], the Ki in assay [1] (setting [3]) is 2.6 nM; in assay [2] (setting [4]), at least 10000 nM.

For `COc1cccc2c1-c1ccc3c(c1C(c1ccc(N(C)C)cc1)O2)C(C)=CC(C)(C)N3` (stereo not drawn) [Example 39, 4-(2,5-Dihydro-10-methoxy-2,2,4-trimethyl-1H-[1]benzopyrano[3,4-f]quinolin-5-yl)-N,N-dimethylbenzenamine], the Ki in assay [1] (setting [3]) was 31 nM; in assay [2] (setting [4]) it was at least 10000 nM.

`C=CCC1Oc2ccc(OCC)c(OC)c2-c2ccc3c(c21)C(C)=CC(C)(C)N3` (stereo not drawn) [Example 292, 10-Methoxy-9-ethoxy-5-(3-propenyl)-2,2,4-trimethyl-1H-2,5-dihydro-[1]benzopyrano[3,4-f]quinoline]: the inhibitory constant (Ki) in assay [1] (setting [3]) worked out at 487 nM; in assay [2] (setting [4]), 8340 nM.

`C=CCC1Oc2cccc(OC)c2-c2ccc3c(c21)C=C(C)C(C)(C)N3` (stereo not drawn) [Example 364, 2,5-Dihydro-10-methoxy-2,2,3-trimethyl-5-allyl-1H-[1]benzopyrano[3,4-f]quinoline]: the Ki in assay [1] (setting [3]) is 424 nM; in assay [2] (setting [4]), at least 10000 nM.

`COc1cccc2c1-c1ccc3c(c1C(C1C=C(CCl)CCC1)O2)C(C)=CC(C)(C)N3` (stereo not drawn) [Example 159]: the Ki in assay [1] (setting [3]) is 3.8 nM; in assay [2] (setting [4]), 1840 nM.

In the case of `C=CCC1Oc2ccc(OC(=O)CNC(N)=O)c(OC)c2-c2ccc3c(c21)C(C)=CC(C)(C)N3` (racemic) [Example 432, (+/−)2,5-Dihydro-9-(N-carbamoyl-2-aminoacetoxy)-10-methoxy-2,2,4-trimethyl-5-allyl-1H-[1]benzopyrano[3,4-f]quinoline], the inhibition constant (Ki) in assay [1] (setting [3]) is 1.4 nM; in assay [2] (setting [4]), 207 nM.

On to `COc1cccc2c1-c1ccc3c(c1C(c1cccc(F)c1)O2)C(C)=CC(C)(C)N3` (stereo not drawn) [Example 56, 5-(3-Fluorophenyl)-2,5-Dihydro-10-methoxy-2,2,4-trimethyl-1H-[1]benzopyrano[3,4-f]quinoline], for which the Ki was 6.2 nM in assay [1] (setting [3]) and at least 10000 nM in assay [2] (setting [4]).

In the case of `COc1cccc2c1-c1ccc3c(c1C(c1cccc(OC(=O)N(C)C)c1)O2)C(C)=CC(C)(C)N3` (stereo not drawn) [Example 15, [3-(2,5-Dihydro-10-methoxy-2,2,4-trimethyl-1H-[1]benzopyrano[3,4-f]quinolin-5-yl)phenyl]dimethylcarbamate], the Ki in assay [1] (Ki (nM) GR) was 2.5 nM; in assay [2] (Ki (nM) PR) it was at least 10000 nM.

Take `COc1c(O)ccc2c1-c1ccc3c(c1C(c1cc(F)c(F)c(F)c1)O2)C(C)=CC(C)(C)N3` (stereo not drawn) [Example 250, 2,5-Dihydro-9-hydroxy-10-methoxy-2,2,4-trimethyl-5-(3,4,5-trifluorophenyl)-1H-[1]benzopyrano[3,4-f]quinoline]: the figures for the inhibitory constant (Ki) in assay [1] (setting [3]) and in assay [2] (setting [4]) were 2.4 nM and 1470 nM, respectively.

In the case of `C=CCC1Oc2ccc(OC(=O)NCC(=O)OCC)c(OC)c2-c2ccc3c(c21)C(C)=CC(C)(C)N3` (stereo not drawn) [Example 427, 9-(2-Ethoxy-2-oxo-ethylaminocarbonyl)-oxy-10-methoxy-5-(3-propenyl)-2,2,4-trimethyl-1H-2,5-dihydro-[1]benzopyrano[3,4-f]quinoline], the Ki came to 7.8 nM in assay [1] (read-out: Ki (nM) GR) and 2200 nM in assay [2] (read-out: Ki (nM) PR).

With `COc1cccc2c1-c1ccc3c(c1C(c1cccc(CCSC)c1)O2)C(C)=CC(C)(C)N3` (stereo not drawn) [Example 316, 2,5-Dihydro-10-methoxy-5-(3-(2-methythioethyl)phenyl)-2,2,4-trimethyl-1H-[1]benzopyrano[3,4-f]quinoline], the Ki is 11 nM in assay [1] (setting [3]) and at least 10000 nM in assay [2] (setting [4]).

In the case of `COc1c(O)ccc2c1-c1ccc3c(c1[C@H]([C@H]1C=C(CO)CCC1)O2)C(C)=CC(C)(C)N3` (relative stereo) [Example 242], the Ki in assay [1] (setting [3]) was 0.53 nM; in assay [2] (setting [4]) it was 3420 nM.

As to `COc1c(O)ccc2c1-c1ccc3c(c1C(C1C=CCCC1)O2)C(C)=CC(C)(C)N3` (racemic) [Example 236], the Ki in assay [1] (setting [3]) was found to be 0.89 nM; in assay [2] (setting [4]), 36.2 nM.

As for `C=CCC1Oc2cccc(OC(F)F)c2-c2ccc3c(c21)C(C)=CC(C)(C)N3` (stereo not drawn) [Example 8, 10-(Difluoromethoxy)-2,5-dihydro-2,2,4-trimethyl-5-(2-propenyl)-1H-[1]benzopyrano[3,4-f]quinoline], the Ki in assay [1] (setting [3]) is 168 nM; in assay [2] (setting [4]) it was 6010 nM.

(Values after patent publication US6506766B1 (Abbott Laboratories, priority 1998, dated 2003).)
